Results published in PMC4397963, “Phospho-Tyrosine(s) vs. Phosphatidylinositol Binding in Shc Mediated Integrin Signaling” (American journal of molecular biology, 2015).
Entries after “also recorded” stand apart in the source; their conditions may differ. Where no end group is shown, it is not given here. [ ]: non-standard residue; d: D form. pY = N[C@@H](Cc1ccc(OP(=O)(O)O)cc1)C(=O)O

T1: Shc PTB domain (17 – 207) (Homo sapiens, UniProt P29353)
T1 construct: The Shc PTB domain (17 – 207) containing the pET15b vector was transformed into a Rosetta (DE3) cell line; His-tag (N); made in house; host or cells: E. coli Rosetta (DE3), pET15b
T1 sequence (P29353 17-207 isoform P29353-2): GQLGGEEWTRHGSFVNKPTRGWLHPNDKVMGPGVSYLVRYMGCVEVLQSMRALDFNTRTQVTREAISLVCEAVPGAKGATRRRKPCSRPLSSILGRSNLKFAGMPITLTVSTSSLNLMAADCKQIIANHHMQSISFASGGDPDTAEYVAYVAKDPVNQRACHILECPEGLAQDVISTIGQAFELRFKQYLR

T2: full length Shc (1 – 473) (UniProt P29353-2 1-473)
T2 construct: Shc adaptor protein, full length 1-473 (printed length 473 residues, the p52 isoform), from a pET28a vector provided by Dr. Ladbury; numbers count on: the p52 isoform; Monomeric on Superdex-75; also called Shc full length; p52 Shc; source: E. coli BL21 (DE3), purified (Ni-NTA, Superdex-75)
T2 sequence (looked up): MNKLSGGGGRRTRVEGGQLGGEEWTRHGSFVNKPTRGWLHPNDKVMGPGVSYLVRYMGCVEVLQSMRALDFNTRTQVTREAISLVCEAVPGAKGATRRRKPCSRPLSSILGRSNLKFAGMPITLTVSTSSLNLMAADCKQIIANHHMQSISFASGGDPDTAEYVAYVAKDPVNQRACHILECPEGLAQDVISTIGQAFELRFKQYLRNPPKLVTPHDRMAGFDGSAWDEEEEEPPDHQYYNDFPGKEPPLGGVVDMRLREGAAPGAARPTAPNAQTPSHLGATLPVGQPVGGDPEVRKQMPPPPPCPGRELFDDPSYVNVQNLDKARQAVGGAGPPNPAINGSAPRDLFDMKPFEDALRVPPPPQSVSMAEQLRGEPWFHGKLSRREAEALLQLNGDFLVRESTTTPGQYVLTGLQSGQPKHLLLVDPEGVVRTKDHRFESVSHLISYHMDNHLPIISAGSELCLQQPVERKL

T3: Shc PTB domain (17 – 207) (UniProt P29353-2 17-207)
T3 construct: Shc adaptor protein (p52 isoform), PTB domain, residues 17-207, from a pET15b vector; numbers count on: the p52 isoform (full length 1-473); 15N-labelled (M9 medium with 15NH4Cl) for the NMR experiments; Monomeric on Superdex-75; also called apo PTB domain; source: E. coli Rosetta (DE3), purified (Ni-NTA, Superdex-75)
T3 sequence (looked up): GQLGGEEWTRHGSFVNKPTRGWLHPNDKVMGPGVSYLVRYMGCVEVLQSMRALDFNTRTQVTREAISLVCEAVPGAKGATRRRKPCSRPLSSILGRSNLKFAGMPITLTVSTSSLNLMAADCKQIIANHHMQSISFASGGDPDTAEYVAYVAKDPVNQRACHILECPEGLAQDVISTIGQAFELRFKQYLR


What was measured:
[1] = molecular target: TrkA phosphopeptide (Homo sapiens) (UniProt P04629); assay: SPR; conditions: cited from earlier work
[2] = molecular target: TrkA phosphopeptide (Homo sapiens) (UniProt P04629); assay: ITC; conditions: cited from earlier work
Shc PTB domain = conditions: ref [15]; cited from earlier work
Excerpt: Since their discovery about two decades ago, PTB domains have been identified and structurally characterized within numerous multi-domain proteins. The ways they interact with their targets are strikingly versatile. The phosphorylated tyrosine is not always required for the high affinity interactions, and, in some cases, the binding motif might not even contain the tyrosine residue at all. PTB domains in general are also famous for the significant variance in their ligand binding affinities, ranging from 0.1 to 100 μM [17].

apo Shc PTB domain = assay: 15N-HSQC NMR titration of apo Shc PTB domain; type: binding; conditions: 15N-labelled apo PTB 100 – 200 μM, 50 mM Tris pH 7.5, 100 mM NaCl, 35°C; lipid to protein up to 15 to 1 (Ins(1,4,5)P3), 5 to 1 (PtdIns(4,5)P2)
Description: ^15N-labelled recombinant proteins were overexpressed in M9 medium supplemented with ^15NH4Cl as the sole nitrogen source. The same purification procedures as described above were followed. NMR samples of 100 – 200 μM were prepared in a buffer of 50 mM Tris, pH 7.5, 100 mM NaCl, 5 mM β-mercaptoethanol, 7% D2O, 1 mM 4,4-dimethyl-4-silapentane-1-sulfonic acid as the internal standard. ^15N-HSQC titration experiments were performed on a Varian/Agilent Inova 600 MHz spectrometer equipped with inverse-triple resonance cryo-probe at 35°C. All spectra were processed with NMRPipe and analyzed in CCPNmr Analysis software suite.
To find out the molecular details of these weak Shc-PtdIns interactions, we next employed NMR and performed ^15N-HSQC chemical shifts mapping experiments which are especially useful to define weak binding. […] Chemical shift perturbations, associated with the probes binding, were monitored. Overall, the observed shifts in Shc PTB resonance frequencies were small. However, they were concentration dependent, reproducible, and similar among the two PtdIns tested. […] The close-ups of 15N-HSQC spectra of PTB in the presence of PtdIns(4,5)P2, exemplifying the most shifted resonances, are shown in Figure 2. […] The first one, represented by the residues Q^148, S^149 and A^168, overlaps with the classical phosphotyrosine binding pocket of the protein-peptide binary complex. However, the canonical PTB fold cannot be formed without the stabilizing hydrophobic residue (pY-5) of the target peptide. Thus, in apo PTB domain Ins(1,4,5)P3 could only establish intermediate dynamic contacts with the amine functional groups of R^67 or Q^148 side chains. The second binding site, including the residues L^63, Q^76 and S^107, is formed at the interface of the second helix, the loop connecting the first beta strand with the second helix and the beginning of the second beta strand. This second PtdIns binding site is distinct from the second novel phosphotyrosine binding site we previously described for Shc PTB-bi-β3 complex, although it includes several overlapping residues. […]

[3] = molecular target: T1, Shc PTB domain (17 – 207); assay: ITC binding to Shc PTB domain; conditions: for thermodynamic character of binding (heat sign, driving force) / Kd / ΔG / ΔH / −TΔS: ITC, 25°C; for Kd / ΔG / ΔH / −TΔS: PtdIns binding to PTB domain; for Kd: 50 mM Tris pH 7.5, 100 mM NaCl, 5 mM β-mercaptoethanol, "independent" model, dihexanoyl- or dioctonoyl- PtdIns, read-out: Kd; for ΔG / ΔH / −TΔS: pH 7.5
Description: The Shc PTB domain (17 – 207) containing the pET15b vector was transformed into a Rosetta (DE3) cell line to pursue optimal expression levels. SH2 domain (380 – 473) was cloned into NdeI and XhoI sites in pET21b vector and then transformed into a BL21 (DE3) cell line. The vector of pET28a-full length Shc (1 – 473), generously provided by Dr. Ladbury (University of Texas MD Anderson Cancer Center, TX), was expressed in a BL21 (DE3) cell line as well. Typically, 10 ml overnight culture was used to inoculate 1 liter LB broth. Cells were grown at 37°C until OD600 reached 0.6. At this point the culture was cooled to room temperature and then the overnight overexpression was induced by 1 mM isopropyl-β-D-thiogalactopyranoside. Harvested cells were kept at −20°C for future purification or resuspended in lysis buffer supplemented with protease inhibitors. Cells were further lysed by french press and the cell debris was removed by centrifugation at 18,000 rpm at 4°C. […] The overexpression of the target protein and the purified protein were confirmed by SDS-PAGE and the bands of the expected mass were observed. The determination of protein concentration by UV measurement was consistent with Bradford assay.
Calorimetric measurements of a full length Shc, PTB domain, and SH2 domain to β3 phosphopeptides or PtdIns were performed on a low volume Nano ITC (TA Instruments). All experiments were carried out in a buffer of 50 mM Tris, pH 7.5, 100 mM NaCl, 5 mM β-mercaptoethanol (unless described otherwise) at 12°C or 25°C with a stirring speed of 250 rpm to minimize the precipitation of the protein. 300 second time intervals were set between injections. The concentration of protein samples was determined by UV measurements. The titrants (β3 phosphopeptides or PtdIns) were prepared in the same buffer by the dilution of higher concentration stocks. The concentrations of the protein ranged from 30 μM to 150 μM. The concentration of protein was examined after each ITC experiment by UV to ensure the stability of proteins under the test condition. The analysis of the data was done with Nano Analyze Software (TA Instruments) suite using an “independent” model.

[4] = molecular target: PTB domain complexed with TrkA peptide; conditions: roughly estimated; ref [15]; cited from earlier work
apo PTB domain of Shc = conditions: unilamellar liposomes centrifugation assay; ref [15]; read-out: binding affinity, apo PTB domain; cited from earlier work
[5] = molecular target: T2, full length Shc (1 – 473); assay: ITC; Nano ITC; β3 phosphopeptide titrated into the Shc protein (30-150 μM); 12°C; 50 mM Tris, pH 7.5, 100 mM NaCl, 5 mM β-mercaptoethanol; independent model; conditions: both partners purified
[6] = molecular target: T3, Shc PTB domain (17 – 207); assay: as above; conditions: both partners purified
[7] = molecular target: T2, full length Shc (1 – 473); assay: ITC; Nano ITC; β3 phosphopeptide titrated into the Shc protein (30-150 μM); 25°C; 50 mM Tris, pH 7.5, 100 mM NaCl, 5 mM β-mercaptoethanol; independent model; conditions: both partners purified
[8] = molecular target: T3, Shc PTB domain (17 – 207); assay: as above; conditions: both partners purified
[9] = molecular target: T3, Shc PTB domain (17 – 207); assay: ITC; Nano ITC; β3 phosphopeptide titrated into the Shc protein (30-150 μM); 12°C; 50 mM Tris, pH 7.5, 100 mM NaCl, 5 mM β-mercaptoethanol; independent model; conditions: both partners purified; remark: listed apart in the source
[10] = molecular target: T2, full length Shc (1 – 473); assay: ITC; Nano ITC; β3 phosphopeptide titrated into the Shc protein over-saturated by Ins(1,4,5)P3 at 3 to 1 lipid to protein ratio; 12°C; conditions: both partners purified
[11] = molecular target: T3, Shc PTB domain (17 – 207); assay: as above; conditions: both partners purified
[12] = molecular target: T2, full length Shc (1 – 473); assay: ITC; Nano ITC; β3 phosphopeptide titrated into the Shc protein (30-150 μM); 25°C; 50 mM Tris, pH 7.5, 100 mM NaCl, 5 mM β-mercaptoethanol; independent model; conditions: both partners purified; remark: listed apart in the source
[13] = molecular target: T3, Shc PTB domain (17 – 207); assay: as above; conditions: both partners purified; remark: listed apart in the source

Sequence of TrkA phosphopeptide (Homo sapiens) (P04629 33-796): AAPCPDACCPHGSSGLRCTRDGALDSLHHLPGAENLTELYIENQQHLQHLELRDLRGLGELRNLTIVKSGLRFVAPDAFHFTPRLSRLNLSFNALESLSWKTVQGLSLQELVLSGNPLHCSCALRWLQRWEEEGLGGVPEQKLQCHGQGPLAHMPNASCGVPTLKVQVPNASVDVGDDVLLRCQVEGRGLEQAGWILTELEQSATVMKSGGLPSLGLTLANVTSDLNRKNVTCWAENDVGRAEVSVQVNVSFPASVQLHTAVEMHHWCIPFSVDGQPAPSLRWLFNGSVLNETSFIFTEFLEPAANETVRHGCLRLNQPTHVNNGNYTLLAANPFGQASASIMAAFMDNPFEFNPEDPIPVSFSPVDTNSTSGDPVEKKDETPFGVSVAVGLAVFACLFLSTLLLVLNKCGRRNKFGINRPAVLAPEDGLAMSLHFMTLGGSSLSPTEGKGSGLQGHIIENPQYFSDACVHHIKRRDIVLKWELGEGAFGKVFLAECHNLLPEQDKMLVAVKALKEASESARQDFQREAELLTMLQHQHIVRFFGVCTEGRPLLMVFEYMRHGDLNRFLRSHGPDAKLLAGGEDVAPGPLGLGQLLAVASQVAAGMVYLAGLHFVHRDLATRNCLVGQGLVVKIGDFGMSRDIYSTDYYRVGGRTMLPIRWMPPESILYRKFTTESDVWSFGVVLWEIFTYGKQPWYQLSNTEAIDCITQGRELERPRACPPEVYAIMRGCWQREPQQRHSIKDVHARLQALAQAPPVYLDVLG

Kd [3]	ΔG [3]	ΔH [3]	−TΔS [3]	Molecule	lipid specificity (Shc PTB domain)	15N-HSQC chemical shift perturbations (apo Shc PTB domain)	thermodynamic character of binding (heat sign, driving force) ([3]; PTB domain)	Kd [4]	Kd (apo PTB domain of Shc)	other results
				Shc PTB (from UniProt P29353)						Kd [1]: 0.053 µM; Kd [2]: 0.19 µM
95 µM	-5.485 kcal/mol	0.361 kcal/mol	-5.846 kcal/mol	Phosphatidylinositol-4-phosphate [PtdIns(4)P1]	higher specificities	small	endothermic interactions at 25 °C that are driven predominantly by entropy	~450 µM	52 µM	binding affinity relative to that reported before ([3]; PTB domain, ITC 25°C vs. centrifugation assay of ref 15): about two times weaker
125 µM	-5.323 kcal/mol	0.464 kcal/mol	-5.786 kcal/mol	CCCCCCCCCCCCCCCC(=O)OC[C@H](COP(=O)(O)O[C@H]1[C@H](O)[C@@H](O)[C@H](OP(=O)(O)O)[C@@H](OP(=O)(O)O)[C@H]1O)OC(=O)CCCCCCCCCCCCCCC [PtdIns(4,5)P2, Phosphatidylinositol-4,5-diphosphate]	higher specificities	small; also recorded: more pronounced; also recorded: three major binding regions	endothermic interactions at 25 °C that are driven predominantly by entropy	~450 µM	140 µM	
				RAKWDTANNPL[pY]KEATSTFTNIT[pY]RGT (integrin β3 cytoplasmic tail, residues 736-762, both tyrosines phosphorylated; also called bi-phosphorylated β3 cytoplasmic tail peptide; source: synthetic peptide (NEO-Peptide)) [bi-β3: β3 integrin derived bi-phosphorylated (Y747 and Y759) peptide]						Kd [5]: 5.21 µM; dH [5]: -3.89 kcal/mol; Kd [6]: 4.32 µM; dH [6]: -2.75 kcal/mol; stoichiometry N [7]: 1 ± 0.15; stoichiometry N [8]: ~1; stoichiometry N [9]: 1 ± 0.15; Kd [10]: 4.38 µM; dH [10]: -3.32 kcal/mol; Kd [11]: 3.65 µM; dH [11]: -2.96 kcal/mol; Kd [12]: 2.84 µM; dH [12]: -6.89 kcal/mol; Kd [13]: 5.14 µM; dH [13]: -5.49 kcal/mol
